Results as given in PMC9045377, “CpxA Phosphatase Inhibitor Activates CpxRA and Is a Potential Treatment for Uropathogenic Escherichia coli in a Murine Model of Infection” (Microbiology Spectrum, 2022).

How the values were obtained:
[1] = tested on: CpxR-P; assay: CpxR-P accumulation in CFT073 cultured in human urine (Phos-Tag gel, Western blot, densitometry); assay type: cell-based, Escherichia coli; conditions: 150 μM, 5 h, 4 experiments
Procedure: To examine whether treatment with compound 26 fostered higher accumulation of CpxR-P in CFT073 than in untreated CFT073 or CFT073ΔcpxA::cat, we cultured CFT073 in human urine in the presence of 150 μM compound 26 dissolved in DMSO, and CFT073 and CFT073ΔcpxA::cat in the presence of DMSO alone (hereafter called the CFT073 and CFT073ΔcpxA::cat controls); we chose 150 μM, as this was the approximate trough concentration of compound 6 detected in murine urine after 3 days of treatment. Briefly, the bacteria were grown in LB medium overnight, pelleted, washed, and inoculated into human urine and allowed to grow for 5 h. […] We harvested bacterial cells, made cell lysates, and detected CpxR and CpxR-P by Western blotting with an anti-MBP-CpxR antiserum as described ([31]). […] To compare the samples, the CpxR and CpxR-P bands were quantified by densitometry using samples from 4 of the independent experiments. […]
E. coli CFT073 and CFT073ΔcpxA::cat were cultured overnight at 37°C in 5 mL of LB medium overnight with shaking. […] Densitometry values were determined using Photoshop 2021 (version 22.4.3), and the ratio of CpxR-P to CpxR was analyzed by one-way ANOVA adjusted for multiple comparisons using the Tukey procedure.

[2] = tested on: CFT073; assay: Growth of CFT073 in human urine (OD600); assay type: cell-based, Escherichia coli; conditions: 150 μM, 5 h
[3] = tested on: UPEC strain CFT073; assay type: in vivo, Escherichia coli (in female CBA/J mice); conditions: compound 26 trial

N[C@@H]1CCCc2c1[nH]c1cc(F)c(F)cc21 [compound 26]
increase of the ratio of CpxR-P to CpxR vs CFT073 control [1]: 1.3 fold | increase of the ratio of CpxR-P to CpxR vs CFT073ΔcpxA::cat control [1]: 1.4 fold | effect on bacterial growth [2]: does not inhibit bacterial growth | OD600 of treated CFT073, mean ± SD ([2]; 5 independent experiments): 0.52 ± 0.2 | recoverable CFU in bladder vs vehicle-treated mice inoculated with CFT073ΔcpxA::cat [3]: significantly lower | recoverable CFU in kidneys vs vehicle-treated mice inoculated with CFT073ΔcpxA::cat [3]: significantly lower | recoverable CFU in urine vs vehicle-treated mice inoculated with CFT073ΔcpxA::cat [3]: trended toward having a lower CFU | recoverable CFU in urine vs CFT073-inoculated vehicle-treated controls ([3]; 8 mice/group, compound 26 100 mg/kg s.c. at 12, 36, 60 h, ciprofloxacin 2.5 mg/kg/dose s.c. at 12, 24, 36, 48, 60 h, sacrifice 64 h): significantly lowered | recoverable CFU in bladder vs CFT073-inoculated vehicle-treated controls ([3]; same regimens): trended toward lowering | recoverable CFU in kidneys vs CFT073-inoculated vehicle-treated controls ([3]; same regimens): trended toward lowering | recoverable CFU in urine, bladder and kidneys vs ciprofloxacin-treated group ([3]; all P > 0.9): no significant differences
